Results from ChEMBL document CHEMBL6092167, “Phosphorylation as an Effective Tool to Improve Stability and Reduce Toxicity of Antimicrobial Peptides” (J Med Chem, 2024).
Activity calls are given as the source filed them. No cut-off for these calls is given here. Positions of bridges follow the written chain, without caps; N, C: chain ends. Non-standard residues stand in square brackets, D forms with d. Residues, ends and D or L forms follow the SMILES beside them. *: point of attachment. X1 = CC[C@H](C)CCCCC(=O)*; dDab = NCC[C@@H](N)C(=O)O; Dab = NCC[C@H](N)C(=O)O

Key:
[1] = Toxicity in ip dosed BALB/c mouse assessed as hemorrhage in lung at LD50 dose by H and E staining based assay; assay type: organism-based; settings: in vivo
[2] = Toxicity in ip dosed BALB/c mouse assessed as inflammatory cell infiltration in lung at LD50 dose by H and E staining based assay; assay type: organism-based; settings: in vivo
[3] = Toxicity in ip dosed BALB/c mouse assessed as renal cell swelling at LD50 dose by H and E staining based assay; assay type: organism-based; settings: in vivo
[4] = Toxicity in ip dosed BALB/c mouse assessed as respiratory depression at LD50 dose measured within 1 hr by Karber method; assay type: organism-based; settings: in vivo
[5] = Cytotoxicity against HEK293T cells incubated for 1 hr by fluorescence based microplate reader assay; assay type: toxicity, cell-based, HEK-293T; settings: human
[6] = Toxicity in ip dosed BALB/c mouse assessed as lusterless hair at LD50 dose measured within 1 hr by Karber method; assay type: organism-based; settings: in vivo
[7] = Toxicity in ip dosed BALB/c mouse measured after 14 days; assay type: organism-based; settings: in vivo, time 14 day
[8] = Toxicity in ip dosed BALB/c mouse assessed as rapid death at LD50 dose measured within 1 hr by Karber method; assay type: organism-based; settings: in vivo
[9] = Toxicity in ip dosed BALB/c mouse assessed as convulsions at LD50 dose measured within 1 hr by Karber method; assay type: organism-based; settings: in vivo
[10] = Toxicity in ip dosed BALB/c mouse assessed as sharp breathing at LD50 dose measured within 1 hr by Karber method; assay type: organism-based; settings: in vivo
[11] = Hemolytic activity in mouse erythrocyte incubated for 1 hr by microplate reader assay; assay type: toxicity, cell-based
[12] = Toxicity in ip dosed BALB/c mouse assessed as alveolar constriction at LD50 dose by H and E staining based assay; assay type: organism-based; settings: in vivo
[13] = Toxicity in ip dosed BALB/c mouse assessed as lateral recumbency at LD50 dose measured within 1 hr by Karber method; assay type: organism-based; settings: in vivo
[14] = Toxicity in ip dosed BALB/c mouse assessed as hemorrhage in kidney at LD50 dose by H and E staining based assay; assay type: organism-based; settings: in vivo
[15] = Toxicity in ip dosed BALB/c mouse assessed as pulmonary congestion at LD50 dose by H and E staining based assay; assay type: organism-based; settings: in vivo
[16] = Toxicity in ip dosed BALB/c mouse assessed as inflammatory cell infiltration in kidney at LD50 dose by H and E staining based assay; assay type: organism-based; settings: in vivo
[17] = system: Klebsiella pneumoniae; assay: Antibacterial activity against Klebsiella pneumoniae ATCC 700603 incubated for 18 to 24 hrs by broth microdilution method; assay type: functional; settings: time 18-24 hrs
[18] = system: Staphylococcus aureus; assay: Antibacterial activity against methicillin resistant Staphylococcus aureus 48 incubated for 18 to 24 hrs by broth microdilution method; assay type: functional; settings: time 18-24 hrs
[19] = system: Bacillus subtilis; assay: Antibacterial activity against Bacillus subtilis ATCC 23857 incubated for 18 to 24 hrs by broth microdilution method; assay type: functional; settings: time 18-24 hrs
[20] = system: Acinetobacter baumannii; assay: Antibacterial activity against Acinetobacter baumannii ATCC 19606 incubated for 18 to 24 hrs by broth microdilution method; assay type: functional; settings: time 18-24 hrs
[21] = system: Klebsiella pneumoniae; assay: Synergistic antibacterial activity against Klebsiella pneumoniae ATCC 700603 assessed as fractional inhibitory concentration index at 1/4 to 4 times MIC incubated for 18 to 24 hrs in presence of ciprofloxacin by checkerboard assay; assay type: functional; settings: time 18-24 hrs
[22] = system: Staphylococcus aureus; assay: Antibacterial activity against methicillin resistant Staphylococcus aureus ATCC 33591 incubated for 18 to 24 hrs by broth microdilution method; assay type: functional; settings: time 18-24 hrs
[23] = system: Klebsiella pneumoniae; assay: Drug resistance development in Klebsiella pneumoniae ATCC 700603 assessed as fold increase in MIC measured after 20 passage; assay type: functional
[24] = system: Escherichia coli; assay: Antibacterial activity against Escherichia coli 850 incubated for 18 to 24 hrs by broth microdilution method; assay type: functional; settings: time 18-24 hrs
[25] = system: Staphylococcus aureus; assay: Antibacterial activity against Staphylococcus aureus 794 incubated for 18 to 24 hrs by broth microdilution method; assay type: functional; settings: time 18-24 hrs
[26] = system: Escherichia coli; assay: Antibacterial activity against Escherichia coli 780 incubated for 18 to 24 hrs by broth microdilution method; assay type: functional; settings: time 18-24 hrs
[27] = system: Klebsiella pneumoniae; assay: Additive antibacterial activity against Klebsiella pneumoniae ATCC 700603 assessed as fractional inhibitory concentration index at 1/4 to 4 times MIC incubated for 18 to 24 hrs in presence of kanamycin by checkerboard assay; assay type: functional; settings: time 18-24 hrs
[28] = system: Pseudomonas aeruginosa; assay: Antibacterial activity against Pseudomonas aeruginosa 119 incubated for 18 to 24 hrs by broth microdilution method; assay type: functional; settings: time 18-24 hrs
[29] = system: Escherichia coli; assay: Antibacterial activity against Escherichia coli ATCC 25922 incubated for 18 to 24 hrs by broth microdilution method; assay type: functional; settings: time 18-24 hrs
[30] = system: Staphylococcus aureus; assay: Antibacterial activity against Staphylococcus aureus ATCC 25923 incubated for 18 to 24 hrs by broth microdilution method; assay type: functional; settings: time 18-24 hrs
[31] = system: Pseudomonas aeruginosa; assay: Antibacterial activity against Pseudomonas aeruginosa ATCC 27853 incubated for 18 to 24 hrs by broth microdilution method; assay type: functional; settings: time 18-24 hrs
[32] = system: Staphylococcus aureus; assay: Bactericidal activity against Staphylococcus aureus ATCC 25923 at 2 times MIC incubated for 24 hrs by time kill assay; assay type: functional
[33] = system: Staphylococcus aureus; assay: Antibacterial activity against Staphylococcus aureus ATCC 25923 assessed as fold increase in MIC in presence of Na+; assay type: functional
[34] = system: Staphylococcus aureus; assay: Antibacterial activity against Staphylococcus aureus ATCC 25923 preincubated for 6 hrs in presence of chymotrypsin followed by heat inactivation for 15 mins prior to bacterial addition and measured after 18 to 24 hrs by microplate reader assay; assay type: functional, organism-based; settings: time 18-24 hrs
[35] = system: Pseudomonas aeruginosa; assay: Antibiofilm activity against Pseudomonas aeruginosa ATCC 27853 assessed as eradication of preformed biofilms at 4 times MIC incubated for 24 hrs by crystal violet staining based assay; assay type: functional, organism-based
[36] = system: Klebsiella pneumoniae; assay: Antibacterial activity against Klebsiella pneumoniae ATCC 700603 infected in BALB/c mouse lung infection model assessed as reduction in hepatic hemorrhage at 2.46 mg/kg, ip administered twice daily for 3 days and measured after 7 days; assay type: functional, organism-based; settings: time 10.0 day
[37] = system: Klebsiella pneumoniae; assay: Antibacterial activity against Klebsiella pneumoniae ATCC 700603 infected in BALB/c mouse lung infection model assessed as reduction in pulmonary tissue bleeding at 2.46 mg/kg, ip administered twice daily for 3 days and measured after 7 days; assay type: functional, organism-based; settings: time 10.0 day
[38] = system: Staphylococcus aureus; assay: Antibacterial activity against Staphylococcus aureus ATCC 25923 preincubated for 6 hrs in presence of trypsin followed by heat inactivation for 15 mins prior to bacterial addition and measured after 18 to 24 hrs by microplate reader assay; assay type: functional, organism-based; settings: time 18-24 hrs
[39] = system: Escherichia coli; assay: Antibiofilm activity against Escherichia coli ATCC 25922 assessed as eradication of preformed biofilms at 4 times MIC incubated for 24 hrs by crystal violet staining based assay; assay type: functional, organism-based
[40] = system: Klebsiella pneumoniae; assay: Antibacterial activity against Klebsiella pneumoniae 700603 preincubated for 6 hrs in presence of trypsin followed by heat inactivation for 15 mins prior to bacterial addition and measured after 18 to 24 hrs by microplate reader assay; assay type: functional, organism-based; settings: time 18-24 hrs
[41] = system: Klebsiella pneumoniae; assay: Antibacterial activity against Klebsiella pneumoniae ATCC 700603 infected in BALB/c mouse lung infection model assessed as reduction in alveolar contraction at 2.46 mg/kg, ip administered twice daily for 3 days and measured after 7 days; assay type: functional, organism-based; settings: time 10.0 day
[42] = system: Klebsiella pneumoniae; assay: Antibiofilm activity against Klebsiella pneumoniae ATCC 700603 assessed as eradication of preformed biofilms at 4 times MIC incubated for 24 hrs by crystal violet staining based assay; assay type: functional, organism-based
[43] = system: Klebsiella pneumoniae; assay: Antibacterial activity against Klebsiella pneumoniae 700603 preincubated for 6 hrs in presence of chymotrypsin followed by heat inactivation for 15 mins prior to bacterial addition and measured after 18 to 24 hrs by microplate reader assay; assay type: functional, organism-based; settings: time 18-24 hrs

Compound: CC(C)CCCCC(=O)N[C@@H](CCN)C(=O)N[C@H](C(=O)N[C@@H](CCN)C(=O)N[C@H]1CCNC(=O)[C@H]([C@@H](C)O)NC(=O)[C@H](CCN)NC(=O)[C@H](CCN)NC(=O)[C@H](CC(C)C)NC(=O)[C@@H](Cc2ccccc2)NC(=O)[C@H](CCN)NC1=O)[C@@H](C)O.CC[C@H](C)CCCCC(=O)N[C@@H](CCN)C(=O)N[C@H](C(=O)N[C@@H](CCN)C(=O)N[C@H]1CCNC(=O)[C@H]([C@@H](C)O)NC(=O)[C@H](CCN)NC(=O)[C@H](CCN)NC(=O)[C@H](CC(C)C)NC(=O)[C@@H](Cc2ccccc2)NC(=O)[C@H](CCN)NC1=O)[C@@H](C)O (X1-[Dab]T[Dab][Dab][Dab][dF]L[Dab][Dab]T; lactam 4-C) [listing 1 of 2 here]
- Activity [1]: Toxic
- Activity [2]: Toxic
- Activity [3]: Toxic
- Activity [4]: Toxic
- CC50 at 1 h [5]: 128 µM
- Activity [6]: Toxic
- LD50 at 336 h [7]: 25.7 mg/kg
- Activity [8]: Toxic
- Activity [9]: Toxic
- Activity [10]: Toxic
- MHC [11]: > 256 µM
- Activity [12]: Toxic
- Activity [13]: Toxic
- Activity [14]: Toxic
- Activity [15]: Toxic
- Activity [16]: Toxic

Compound: CC(C)CCCCC(=O)N[C@@H](CCN)C(=O)N[C@H](C(=O)N[C@@H](CCN)C(=O)N[C@H]1CCNC(=O)[C@H]([C@@H](C)O)NC(=O)[C@H](CCN)NC(=O)[C@H](CCN)NC(=O)[C@H](CC(C)C)NC(=O)[C@@H](Cc2ccccc2)NC(=O)[C@H](CCN)NC1=O)[C@@H](C)O.CC[C@H](C)CCCCC(=O)N[C@@H](CCN)C(=O)N[C@H](C(=O)N[C@@H](CCN)C(=O)N[C@H]1CCNC(=O)[C@H]([C@@H](C)O)NC(=O)[C@H](CCN)NC(=O)[C@H](CCN)NC(=O)[C@H](CC(C)C)NC(=O)[C@@H](Cc2ccccc2)NC(=O)[C@H](CCN)NC1=O)[C@@H](C)O (X1-[Dab]T[Dab][Dab][Dab][dF]L[Dab][Dab]T; lactam 4-C) [listing 2 of 2 here]
- MIC [17]: 4 µM
- MIC [18]: 16 µM
- MIC [19]: 4 µM
- MIC [20]: 2 µM
- fractional inhibitory concentration index (FICI) [21]: 0.313
- MIC [22]: 16 µM
- fold change (FC) [23]: 64
- MIC [24]: 2 µM
- MIC [25]: 8 µM
- MIC [26]: 2 µM
- fractional inhibitory concentration index (FICI) [27]: 0.313
- MIC [28]: 2 µM
- MIC [29]: 4 µM
- MIC [30]: 16 µM
- MIC [31]: 2 µM
- Activity [32]: 100%
- fold change (FC) [33]: 4

Compound: CC(C)CCCCC(=O)N[C@@H](CCN)C(=O)N[C@H](C(=O)N[C@@H](CCN)C(=O)N[C@H]1CCNC(=O)[C@H]([C@@H](C)O)NC(=O)[C@H](CCN)NC(=O)[C@H](CCN)NC(=O)[C@H](CC(C)C)NC(=O)[C@@H](Cc2ccccc2)NC(=O)[C@@H](CCN)NC1=O)[C@@H](C)O.CC[C@H](C)CCCCC(=O)N[C@@H](CCN)C(=O)N[C@H](C(=O)N[C@@H](CCN)C(=O)N[C@H]1CCNC(=O)[C@H]([C@@H](C)O)NC(=O)[C@H](CCN)NC(=O)[C@H](CCN)NC(=O)[C@H](CC(C)C)NC(=O)[C@@H](Cc2ccccc2)NC(=O)[C@@H](CCN)NC1=O)[C@@H](C)O (X1-[Dab]T[Dab][Dab][dDab][dF]L[Dab][Dab]T; lactam 4-C)
- Activity [34]: Active; High Enzymatic Stability
- Activity [35]: Active
- Activity [36]: inactive
- Activity [37]: inactive
- Activity [38]: Active; High Enzymatic Stability
- Activity [39]: Active
- Activity [40]: Active; High Enzymatic Stability
- Activity [41]: inactive
- Activity [42]: Active
- Activity [43]: Active; High Enzymatic Stability
